Calls of active or inactive are those of the source. The calls are words filed in the database; no cut-off is given here.
How the values were obtained:
[1] = biological target: Mast/stem cell growth factor receptor Kit (Homo sapiens, UniProt P10721); test: Inhibition of KIT by HTRF assay
[2] = biological target: T1, Receptor-type tyrosine-protein kinase FLT3 (Homo sapiens, UniProt P36888)
T1 sequence (P36888 whole entry): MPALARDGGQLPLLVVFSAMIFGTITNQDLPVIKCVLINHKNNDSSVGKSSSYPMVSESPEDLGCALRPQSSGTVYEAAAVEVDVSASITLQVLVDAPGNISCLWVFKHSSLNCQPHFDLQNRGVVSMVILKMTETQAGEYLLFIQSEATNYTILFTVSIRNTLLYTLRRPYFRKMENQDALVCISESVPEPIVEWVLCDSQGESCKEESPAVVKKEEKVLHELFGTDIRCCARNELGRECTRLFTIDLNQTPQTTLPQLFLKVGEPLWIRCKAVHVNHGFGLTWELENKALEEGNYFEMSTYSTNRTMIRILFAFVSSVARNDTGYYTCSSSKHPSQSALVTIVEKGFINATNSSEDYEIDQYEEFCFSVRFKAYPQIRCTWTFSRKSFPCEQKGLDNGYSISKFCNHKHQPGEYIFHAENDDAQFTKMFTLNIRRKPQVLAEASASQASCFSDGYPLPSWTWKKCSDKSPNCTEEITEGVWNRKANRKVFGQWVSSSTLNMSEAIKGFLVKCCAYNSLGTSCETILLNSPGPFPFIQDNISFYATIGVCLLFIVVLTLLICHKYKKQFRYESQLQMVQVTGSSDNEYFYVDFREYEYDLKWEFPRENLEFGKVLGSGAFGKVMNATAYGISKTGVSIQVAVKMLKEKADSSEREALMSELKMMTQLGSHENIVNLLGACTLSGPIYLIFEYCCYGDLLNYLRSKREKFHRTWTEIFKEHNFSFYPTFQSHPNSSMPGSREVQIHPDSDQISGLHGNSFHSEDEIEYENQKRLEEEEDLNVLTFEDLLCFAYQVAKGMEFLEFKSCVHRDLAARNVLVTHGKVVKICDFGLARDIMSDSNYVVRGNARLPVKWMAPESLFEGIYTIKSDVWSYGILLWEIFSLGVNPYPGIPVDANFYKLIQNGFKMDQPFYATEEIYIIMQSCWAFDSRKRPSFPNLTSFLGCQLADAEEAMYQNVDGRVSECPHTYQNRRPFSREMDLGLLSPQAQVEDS
Description: Inhibition of FLT3 by HTRF assay

[3] = biological target: T2, Vascular endothelial growth factor receptor 2 (Homo sapiens, UniProt P35968)
T2 sequence (P35968 whole entry): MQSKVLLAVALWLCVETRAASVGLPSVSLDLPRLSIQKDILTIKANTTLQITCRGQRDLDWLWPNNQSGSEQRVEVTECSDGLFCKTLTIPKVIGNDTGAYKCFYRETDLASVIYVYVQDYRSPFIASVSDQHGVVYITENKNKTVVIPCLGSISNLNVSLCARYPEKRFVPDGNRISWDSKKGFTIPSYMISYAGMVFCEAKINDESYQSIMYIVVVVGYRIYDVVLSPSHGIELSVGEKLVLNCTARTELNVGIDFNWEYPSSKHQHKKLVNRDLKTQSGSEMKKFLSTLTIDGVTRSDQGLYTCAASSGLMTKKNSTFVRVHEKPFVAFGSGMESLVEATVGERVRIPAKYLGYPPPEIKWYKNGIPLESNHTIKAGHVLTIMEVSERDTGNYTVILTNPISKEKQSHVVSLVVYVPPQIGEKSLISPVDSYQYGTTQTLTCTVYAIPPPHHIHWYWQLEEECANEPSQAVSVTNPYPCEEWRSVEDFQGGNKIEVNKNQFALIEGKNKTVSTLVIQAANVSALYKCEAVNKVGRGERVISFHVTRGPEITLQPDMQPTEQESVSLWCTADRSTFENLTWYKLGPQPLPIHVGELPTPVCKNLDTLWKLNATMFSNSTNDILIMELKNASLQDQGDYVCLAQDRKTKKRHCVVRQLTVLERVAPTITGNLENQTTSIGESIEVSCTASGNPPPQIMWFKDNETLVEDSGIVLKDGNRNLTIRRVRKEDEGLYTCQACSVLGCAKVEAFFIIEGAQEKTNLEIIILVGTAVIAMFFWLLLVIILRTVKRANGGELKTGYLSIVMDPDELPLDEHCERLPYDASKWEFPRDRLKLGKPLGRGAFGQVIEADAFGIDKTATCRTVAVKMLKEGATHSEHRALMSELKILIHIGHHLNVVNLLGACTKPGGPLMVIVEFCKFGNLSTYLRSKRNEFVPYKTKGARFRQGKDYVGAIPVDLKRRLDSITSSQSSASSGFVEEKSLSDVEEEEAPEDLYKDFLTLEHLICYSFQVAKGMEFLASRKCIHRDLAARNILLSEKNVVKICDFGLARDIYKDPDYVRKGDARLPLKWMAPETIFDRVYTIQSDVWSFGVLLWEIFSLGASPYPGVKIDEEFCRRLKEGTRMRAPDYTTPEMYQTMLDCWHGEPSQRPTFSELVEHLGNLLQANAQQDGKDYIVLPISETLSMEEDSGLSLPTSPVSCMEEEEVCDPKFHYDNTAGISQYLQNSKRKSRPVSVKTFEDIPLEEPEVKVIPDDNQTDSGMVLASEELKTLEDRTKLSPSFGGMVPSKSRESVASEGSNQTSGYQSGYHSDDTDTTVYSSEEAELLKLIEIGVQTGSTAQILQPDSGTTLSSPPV
Description: Inhibition of KDR by HTRF assay

[4] = biological target: Receptor-type tyrosine-protein kinase FLT3 (Homo sapiens) (UniProt P36888)
Description: Inhibition of FLT3 by HTRF assay

[5] = biological target: Tyrosine-protein kinase Lyn (Homo sapiens, UniProt P07948); test: Inhibition of LYN by HTRF assay
Tyrosine-protein kinase Lyn, sequence (P07948 whole entry): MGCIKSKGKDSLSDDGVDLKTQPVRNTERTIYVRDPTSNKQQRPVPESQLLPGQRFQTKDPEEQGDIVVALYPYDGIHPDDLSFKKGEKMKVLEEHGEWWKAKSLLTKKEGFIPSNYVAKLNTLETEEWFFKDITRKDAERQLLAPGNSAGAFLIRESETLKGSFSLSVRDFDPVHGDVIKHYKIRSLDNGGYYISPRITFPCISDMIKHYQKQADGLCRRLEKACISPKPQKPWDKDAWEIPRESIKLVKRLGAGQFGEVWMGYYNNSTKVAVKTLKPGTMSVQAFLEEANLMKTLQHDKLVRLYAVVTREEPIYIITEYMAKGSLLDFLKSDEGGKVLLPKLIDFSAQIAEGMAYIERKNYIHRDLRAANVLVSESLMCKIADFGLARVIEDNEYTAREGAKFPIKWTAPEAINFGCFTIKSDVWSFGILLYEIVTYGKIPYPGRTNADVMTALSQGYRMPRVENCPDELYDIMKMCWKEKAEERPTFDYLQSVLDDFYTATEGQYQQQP

[6] = Half life in mouse at 3 mg/kg, iv; assay type: ADME, organism-based; design: dose 3 mg/kg, route intravenous; conditions: in vivo
[7] = Volume of distribution in mouse at 3 mg/kg, iv; assay type: ADME, organism-based; design: dose 3 mg/kg, route intravenous; conditions: in vivo
[8] = Clearance in mouse at 3 mg/kg, iv; assay type: ADME, organism-based; design: dose 3 mg/kg, route intravenous; conditions: in vivo
[9] = tested on: Mus musculus; test: Inhibition of estradiol-induced uterine edema in orally dosed BALB/c mouse edema model; assay type: functional; conditions: po
[10] = tested on: HT-1080; test: Inhibition of tumor growth in human HT1080 cells xenografted in SCID/Beige mouse at 30 mg/kg/day, bid relative to control; conditions: HT-1080, read-out: TGI
[11] = AUC (0 to 24 hrs) in mouse plasma at 30 mg/kg/day; assay type: ADME, organism-based; design: dose 30 mg/kg/day, time < 24 hr
[12] = biological target: Platelet-derived growth factor receptor beta (Homo sapiens, UniProt P09619); test: Inhibition of PDGFRbeta by HTRF assay
Platelet-derived growth factor receptor beta, sequence (P09619 whole entry): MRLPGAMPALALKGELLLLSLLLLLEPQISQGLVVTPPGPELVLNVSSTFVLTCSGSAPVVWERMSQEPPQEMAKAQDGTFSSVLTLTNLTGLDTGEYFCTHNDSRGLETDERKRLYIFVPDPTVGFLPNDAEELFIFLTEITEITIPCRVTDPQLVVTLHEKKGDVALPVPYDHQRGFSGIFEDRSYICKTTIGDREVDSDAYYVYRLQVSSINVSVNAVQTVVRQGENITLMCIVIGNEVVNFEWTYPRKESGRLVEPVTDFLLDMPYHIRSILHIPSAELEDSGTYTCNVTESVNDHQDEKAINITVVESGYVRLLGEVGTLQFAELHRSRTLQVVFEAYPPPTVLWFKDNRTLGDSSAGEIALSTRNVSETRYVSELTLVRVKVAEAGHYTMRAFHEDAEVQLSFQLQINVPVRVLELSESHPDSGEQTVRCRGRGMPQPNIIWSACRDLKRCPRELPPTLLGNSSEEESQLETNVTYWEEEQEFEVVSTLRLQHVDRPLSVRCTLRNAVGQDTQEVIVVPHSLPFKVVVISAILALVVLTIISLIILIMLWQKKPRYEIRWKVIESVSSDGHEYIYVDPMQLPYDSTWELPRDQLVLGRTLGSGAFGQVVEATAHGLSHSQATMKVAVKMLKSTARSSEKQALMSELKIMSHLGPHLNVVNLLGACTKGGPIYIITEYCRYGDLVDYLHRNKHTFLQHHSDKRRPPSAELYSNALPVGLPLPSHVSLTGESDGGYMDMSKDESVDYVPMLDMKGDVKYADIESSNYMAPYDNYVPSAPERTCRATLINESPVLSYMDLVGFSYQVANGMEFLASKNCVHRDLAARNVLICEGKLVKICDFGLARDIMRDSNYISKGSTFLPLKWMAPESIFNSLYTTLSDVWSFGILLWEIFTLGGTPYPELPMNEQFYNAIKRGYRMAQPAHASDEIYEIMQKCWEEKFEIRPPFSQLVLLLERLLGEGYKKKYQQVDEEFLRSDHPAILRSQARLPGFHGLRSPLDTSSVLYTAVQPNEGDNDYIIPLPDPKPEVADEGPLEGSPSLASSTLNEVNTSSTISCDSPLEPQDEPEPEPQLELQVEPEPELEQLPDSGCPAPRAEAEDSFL

[13] = biological target: Angiopoietin-1 receptor (Homo sapiens, UniProt Q02763); test: Inhibition of TIE2 by HTRF assay
[14] = biological target: Tyrosine-protein kinase HCK (Homo sapiens, UniProt P08631); test: Inhibition of HCK by HTRF assay
Tyrosine-protein kinase HCK, sequence (P08631 whole entry): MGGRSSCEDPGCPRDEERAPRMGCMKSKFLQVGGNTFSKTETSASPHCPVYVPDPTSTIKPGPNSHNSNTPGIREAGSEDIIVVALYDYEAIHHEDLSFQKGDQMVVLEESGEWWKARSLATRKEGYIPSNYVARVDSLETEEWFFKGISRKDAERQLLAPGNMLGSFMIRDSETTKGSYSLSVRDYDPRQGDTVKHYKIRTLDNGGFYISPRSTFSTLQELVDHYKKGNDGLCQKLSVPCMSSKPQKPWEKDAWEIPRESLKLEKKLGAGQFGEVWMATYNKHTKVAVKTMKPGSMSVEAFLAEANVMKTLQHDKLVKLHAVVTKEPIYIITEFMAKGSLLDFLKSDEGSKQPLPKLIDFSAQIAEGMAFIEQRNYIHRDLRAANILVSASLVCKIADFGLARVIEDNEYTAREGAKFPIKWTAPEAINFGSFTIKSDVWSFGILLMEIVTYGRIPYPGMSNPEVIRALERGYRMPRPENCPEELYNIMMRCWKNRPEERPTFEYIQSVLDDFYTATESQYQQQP

[15] = biological target: Proto-oncogene tyrosine-protein kinase Src (Homo sapiens, UniProt P12931); test: Inhibition of SRC by HTRF assay
Proto-oncogene tyrosine-protein kinase Src, sequence (P12931 2-536 limits assumed): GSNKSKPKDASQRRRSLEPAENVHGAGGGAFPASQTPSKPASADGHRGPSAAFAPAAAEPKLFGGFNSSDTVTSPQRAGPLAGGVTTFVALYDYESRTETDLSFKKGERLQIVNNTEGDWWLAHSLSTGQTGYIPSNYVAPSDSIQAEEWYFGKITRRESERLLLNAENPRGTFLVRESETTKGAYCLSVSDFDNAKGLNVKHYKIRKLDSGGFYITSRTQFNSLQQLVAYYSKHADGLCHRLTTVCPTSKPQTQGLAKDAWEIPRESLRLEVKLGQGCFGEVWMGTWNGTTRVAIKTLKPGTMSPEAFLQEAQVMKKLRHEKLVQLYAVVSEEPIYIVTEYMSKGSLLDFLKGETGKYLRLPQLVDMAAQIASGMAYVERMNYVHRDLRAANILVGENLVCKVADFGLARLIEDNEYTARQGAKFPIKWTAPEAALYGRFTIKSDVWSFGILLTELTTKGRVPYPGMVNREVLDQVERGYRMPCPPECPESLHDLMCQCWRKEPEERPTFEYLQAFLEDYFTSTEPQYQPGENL

[16] = Oral bioavailability in mouse at 10 mg/kg; assay type: ADME, organism-based; conditions: in vivo
[17] = AUC in mouse at 10 mg/kg, po; assay type: ADME, organism-based; design: dose 10 mg/kg, route oral; conditions: plasma
[18] = biological target: Macrophage colony-stimulating factor 1 receptor (Homo sapiens, UniProt P07333); test: Inhibition of CSF1R by HTRF assay
[19] = biological target: Vascular endothelial growth factor receptor 1 (Homo sapiens, UniProt P17948); test: Inhibition of FLT1 by HTRF assay
[20] = biological target: Voltage-gated inwardly rectifying potassium channel KCNH2 (Homo sapiens, UniProt Q12809)
Description: Displacement of [3H]dofetilide from human ERG expressed in HEK293 cells

[21] = biological target: T2, Vascular endothelial growth factor receptor 2; test: Inhibition of human KDR phosphorylation in mouse NIH3T3 cells by ELISA; assay type: cell-based

Mast/stem cell growth factor receptor Kit, sequence (P10721 whole entry): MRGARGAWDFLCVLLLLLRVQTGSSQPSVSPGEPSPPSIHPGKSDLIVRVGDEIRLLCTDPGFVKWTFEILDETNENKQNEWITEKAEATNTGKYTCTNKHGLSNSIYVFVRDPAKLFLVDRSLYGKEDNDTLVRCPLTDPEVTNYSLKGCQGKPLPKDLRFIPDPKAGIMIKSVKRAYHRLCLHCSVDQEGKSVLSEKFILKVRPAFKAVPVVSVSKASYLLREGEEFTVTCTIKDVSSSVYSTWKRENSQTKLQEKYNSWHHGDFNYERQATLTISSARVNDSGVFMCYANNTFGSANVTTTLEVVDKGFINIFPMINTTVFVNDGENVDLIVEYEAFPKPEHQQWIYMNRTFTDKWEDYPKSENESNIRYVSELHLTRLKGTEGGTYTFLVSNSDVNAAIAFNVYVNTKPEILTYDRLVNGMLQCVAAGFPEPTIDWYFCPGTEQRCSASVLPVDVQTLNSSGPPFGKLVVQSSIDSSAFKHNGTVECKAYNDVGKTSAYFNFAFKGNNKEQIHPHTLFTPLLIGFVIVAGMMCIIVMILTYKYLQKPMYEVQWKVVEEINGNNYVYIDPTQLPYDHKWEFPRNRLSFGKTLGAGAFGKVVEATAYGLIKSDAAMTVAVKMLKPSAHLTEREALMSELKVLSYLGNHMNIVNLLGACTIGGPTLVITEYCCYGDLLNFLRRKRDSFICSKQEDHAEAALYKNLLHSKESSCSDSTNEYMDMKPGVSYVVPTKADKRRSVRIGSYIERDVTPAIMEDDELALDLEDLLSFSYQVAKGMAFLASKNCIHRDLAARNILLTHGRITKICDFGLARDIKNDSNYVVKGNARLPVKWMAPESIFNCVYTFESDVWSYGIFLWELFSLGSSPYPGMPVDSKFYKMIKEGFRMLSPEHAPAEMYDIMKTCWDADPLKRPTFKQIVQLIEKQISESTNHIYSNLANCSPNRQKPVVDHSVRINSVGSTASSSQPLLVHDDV

Work on `Nc1noc2cccc(-c3ccc(NC(=O)Nc4cccc([N+](=O)[O-])c4)cc3)c12` yielded an IC50 [1] of 14 nM and an IC50 [2] of 5 nM.

With `Nc1noc2cccc(-c3ccc(NC(=O)/C=C/c4cccc(C(F)(F)F)c4)cc3)c12` the IC50 [1] was > 12500 nM, the IC50 [3] was > 12500 nM and the IC50 [2] was 1400 nM.

In the case of `Nc1noc2cccc(-c3ccc(NC(=O)Nc4cccc(F)c4)cc3)c12`, the IC50 [1] is reported as 11 nM and the Activity [4] is reported as “inactive”.

In the case of `Cc1ccc(F)c(NC(=O)Nc2ccc(-c3cccc4[nH]nc(N)c34)cc2)c1` [LINIFANIB], the IC50 [5] is reported as > 50000 nM, the half-life [6] is reported as 1.7 h and the Vd [7] is reported as 2.7 L/kg. For the same molecule, the clearance [8] was 18.3 mL/min/kg, the ED50 [9] was 0.4 mg/kg and the inhibition in vivo at 30 mg/kg/day [10] was 85%. The AUC at 24 h [11] was 19.1 µM·h.

`NC(=O)Nc1ccc(-c2cccc3onc(N)c23)cc1` gave an IC50 [1] of 4440 nM.

In the case of `Nc1noc2cccc(-c3ccc(NC(=O)Nc4ccc(C(F)(F)F)cc4)cc3)c12`, the IC50 [1] is reported as 27 nM and the Activity [4] is reported as “inactive”.

With `Nc1noc2cccc(-c3ccc(NC(=O)Nc4cc(F)cc(F)c4)cc3)c12` the IC50 [1] was 14 nM and the Activity [4] was “inactive”.

In the case of `Cc1ccc(NC(=O)Nc2ccc(-c3cccc4onc(N)c34)cc2)cc1Cl`, the IC50 [1] is reported as 50 nM.

For `COc1ccc(-c2ccc(NC(=O)Nc3cc(C)ccc3F)cc2)c2c(N)noc12`, the IC50 [12] was 96 nM, the IC50 [13] was 249 nM and the IC50 [14] was > 50000 nM. The IC50 [15] was > 50000 nM, the IC50 [5] was > 50000 nM and the half-life [6] was 0.66 h. For the same molecule, the Vd [7] was 0.94 L/kg, the clearance [8] was 16.7 mL/min/kg and the bioavailability [16] was 34%. The AUC [17] was 8.5 µM·h, the ED50 [9] was 3.2 mg/kg and the inhibition in vivo at 30 mg/kg/day [10] was 55%. It also gave an IC50 [1] of 43 nM, an IC50 [18] of 27 nM and an IC50 [19] of 24 nM. For the same molecule, the IC50 [20] was > 30000 nM and the IC50 [2] was 36 nM.

Molecule `COc1ccc(NC(=O)Nc2ccc(-c3cccc4onc(N)c34)cc2)cc1Cl` has an IC50 [21] of 36 nM, an IC50 [3] of 8 nM and an IC50 [2] of 8 nM.

`Nc1noc2cccc(-c3ccc(NC(=O)Nc4ccc(OC(F)(F)F)cc4)cc3)c12` showed an IC50 [1] of 102 nM and an IC50 [2] of 27 nM.

Molecule `Nc1noc2cccc(-c3ccc(NC(=O)Nc4ccccc4F)cc3)c12` has an IC50 [1] of 21 nM.

Molecule `Cc1ccc(F)c(NC(=O)Nc2ccc(-c3ccc(CN4CCOCC4)c4onc(N)c34)cc2)c1` has an IC50 [1] of 114 nM, an IC50 [3] of 365 nM and an IC50 [2] of 82 nM.

With `Cc1ccc(F)c(NC(=O)Nc2ccc(-c3ccc(C)c4onc(N)c34)cc2)c1` the IC50 [1] was 64 nM and the IC50 [2] was 61 nM.

`Nc1noc2cccc(-c3ccc(NC(=O)Nc4ccccc4C(F)(F)F)cc3)c12` showed an IC50 [1] of 23400 nM.

In the case of `Cc1ccc(NC(=O)Nc2ccc(-c3cccc4onc(N)c34)cc2)cc1F`, the IC50 [1] is reported as 12 nM and the Activity [4] is reported as “inactive”.

`Cc1ccc(NC(=O)Nc2ccc(-c3cccc4onc(N)c34)cc2)cc1` gave an IC50 [1] of 5 nM.

In the case of `Nc1nsc2cccc(-c3ccc(NC(=O)Nc4cccc(C(F)(F)F)c4)cc3)c12`, the IC50 [1] is reported as 2630 nM, the IC50 [3] is reported as 247 nM and the IC50 [2] is reported as 1260 nM.

`Cc1ccc(F)c(NC(=O)Nc2ccc(-c3cccc4onc(N)c34)cc2)c1` showed an IC50 [1] of 23 nM.

Molecule `Nc1ccc(-c2cccc3onc(N)c23)cc1` has an IC50 [1] of 14800 nM.

Source: ChEMBL document CHEMBL1142358, “3-amino-benzo[d]isoxazoles as novel multitargeted inhibitors of receptor tyrosine kinases” (J Med Chem, 2008)
